What follows are compounds tested against T1, RORγ-LBD (Homo sapiens, UniProt P51449) (assay: RORγ-Ligand Binding Domain (LBD) TR-FRET Assay). Settings: RORγ-LBD TR-FRET.
T1 construct: made in house; host or cells: SF9 cells (baculovirus); used as diluted lysate
T1 sequence (P51449 269-508 limits assumed): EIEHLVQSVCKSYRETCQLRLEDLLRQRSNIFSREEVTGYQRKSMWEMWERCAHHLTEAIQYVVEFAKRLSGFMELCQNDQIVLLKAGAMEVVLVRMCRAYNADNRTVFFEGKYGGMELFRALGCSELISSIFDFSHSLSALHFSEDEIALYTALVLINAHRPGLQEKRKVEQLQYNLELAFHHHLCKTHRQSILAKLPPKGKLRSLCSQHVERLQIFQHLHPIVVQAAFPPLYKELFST
Format: biochemical
Description: Assay procedures and results are described below.
HIS-tagged RORγ-LBD protein was expressed in SF9 cells using a baculovirus expression system. The lysate was diluted in assay buffer (50 mM Tris pH 7.0, 50 mM KCl, 1 mM EDTA, 0.1 mM DTT, 0.01% BSA) to obtain RORγ-LBD final concentration of ˜3 nM in a 384-well assay plate (need to titrate for each batch of protein).
A stock of biotinylated-LXXLL peptide from coactivator SRC1 (Biotin-[…]) was prepared in assay buffer and added to each well (200 nM final concentration). […] RORγ antagonist ursolic acid was also included at a final concentration of 2 μM. Compounds were diluted in DMSO and further diluted in assay buffer with a final DMSO concentration at 1%.
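Wherever TR-FRET Assay Max Response is given: 665/615 nm signal ratio set to 100 without ursolic acid or test compound.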

EC50 [nM] | SMILES
500 to 5000 | O=C(O)CC[C@H]1CN(S(=O)(=O)c2cccc(C(F)(F)F)c2)c2cc(/C=C/c3c(Cl)cc(Cl)cc3Cl)ccc2O1 [Example 89CL, (S,E)-3-(6-(2,4,6-trichlorostyryl)-4-((3-(trifluoromethyl)-phenyl)sulfonyl)-3,4-dihydro-2H-benzo[b][1,4]oxazin-2-yl)propanoic acid]
> 10000 | Cn1cc(/C=C/c2ccc3c(c2)N(S(=O)(=O)c2cccc(C(F)(F)F)c2)C[C@H](CCC(=O)O)O3)c(C(F)(F)F)n1 [Example 89BY, (S,E)-3-(6-(2-(1-methyl-3-(trifluoromethyl)-1H-pyrazol-4-yl)vinyl)-4-((3-(trifluoromethyl)-phenyl)sulfonyl)-3,4-dihydro-2H-benzo[b][1,4]oxazin-2-yl)propanoic acid]
> 10000 | O=S(=O)(c1cccc(C(F)(F)F)c1)N1CCCc2cc(O[C@@H]3CCc4ccccc43)ccc21 [Example 25U, (R)-6-((2,3-dihydro-1H-inden-1-yl)oxy)-1-((3-(trifluoromethyl)-phenyl)sulfonyl)-1,2,3,4-tetrahydroquinoline]
< 500 | O=S(=O)(c1cccc(C(F)(F)F)c1)N1CCCc2cc(OCCc3ccccc3)ccc21 [Example 25N, 6-phenethoxy-1-((3-(trifluoromethyl)phenyl)sulfonyl)-1,2,3,4-tetrahydroquinoline]
5000 to 10000 | Cn1ccnc1/C=C/c1ccc2c(c1)N(S(=O)(=O)c1cccc(C(F)(F)F)c1)C[C@H](CCC(=O)O)O2 [Example 89BU, (S,E)-3-(6-(2-(1-methyl-1H-imidazol-2-yl)vinyl)-4-((3-(trifluoromethyl)phenyl)sulfonyl)-3,4-dihydro-2H-benzo[b][1,4]-oxazin-2-yl)propanoic acid]
500 to 5000 | COC(=O)CC[C@H]1CN(S(=O)(=O)c2cc(C(F)(F)F)cnc2OC(C)C)c2cc(/C=C/c3c(F)cccc3Cl)ccc2O1 [Example 89FL, methyl (S,E)-3-(6-(2-chloro-6-fluorostyryl)-4-((2-isopropoxy-5-(trifluoromethyl)pyridin-3-yl)sulfonyl)-3,4-dihydro-2H-benzo[b][1,4]oxazin-2-yl)propanoate]
< 500 | CCOc1nn(CC)cc1S(=O)(=O)N1C[C@H](CNC(C)=O)Oc2ccc(NCc3c(F)cccc3Cl)cc21 [Example 28G]
< 500 | COC(=O)CC[C@H]1CN(S(=O)(=O)c2cccc(C(F)(F)F)c2)c2cc(/C=C/c3c(C)noc3C)ccc2O1 [Example 89BS, (S,E)-methyl 3-(6-(2-(3,5-dimethylisoxazol-4-yl)vinyl)-4-((3-(trifluoromethyl)phenyl)-sulfonyl)-3,4-dihydro-2H-benzo[b][1,4]-oxazin-2-yl)propanoate]
< 500 | COc1cc(S(=O)(=O)N2CCCc3ccc(OCc4c(Cl)cccc4C4CC4)cc32)ccc1F [Example 25S, 7-((2-chloro-6-cyclopropylbenzyl)oxy)-1-((4-fluoro-3-methoxyphenyl)sulfonyl)-1,2,3,4-tetrahydroquinoline]
500 to 5000 | CCOc1ncc(C(F)(F)F)cc1S(=O)(=O)N1C[C@H](CCC(=O)OC)Oc2ccc(C=C3CCCCC3)cc21 [Example 95A, methyl (S)-3-(6-(cyclohexylidenemethyl)-4-((2-ethoxy-5-(trifluoromethyl)pyridin-3-yl)sulofnyl)-3,4-dihydro-2H-benzo[b][1,4]oxazin-2-yl)propanoate]
< 500 | Cc1cc2c(cc1OCc1c(F)cccc1Cl)N(S(=O)(=O)c1cccc(C(F)(F)F)c1)CCC2 [Example 28D]
< 500 | Cc1nn(C(F)F)cc1S(=O)(=O)N1CC(CO)Cc2ccc(OCc3c(F)cccc3Cl)cc21 (stereo not drawn) [Example 9D]
> 10000 | O=C(O)CC[C@H]1CN(S(=O)(=O)c2cccc(C(F)(F)F)c2)c2cc(/C=C/c3cccc4cn[nH]c34)ccc2O1 [Example 89BL, (S,E)-3-(6-(2-(1H-indazol-7-yl)vinyl)-4-((3-(trifluoromethyl)phenyl)sulfonyl)-3,4-dihydro-2H-benzo[b][1,4]oxazin-2-yl)propanoic acid]
< 500 | CCOC(=O)C1Cc2ccc(OCc3c(F)cccc3Cl)cc2N(S(=O)(=O)c2cn(CC)nc2Cl)C1 (stereo not drawn) [Example 9E, ethyl 1-((3-chloro-1-ethyl-1H-pyrazol-4-yl)sulfonyl)-7-((2-chloro-6-fluorobenzyl)oxy)-1,2,3,4-tetrahydroquinoline-3-carboxylate]
> 10000 | O=C(O)CC[C@H]1CN(S(=O)(=O)c2cccc(C(F)(F)F)c2)c2cc(/C=C/c3c[nH]nc3C(F)(F)F)ccc2O1 [Example 89BT, (S,E)-3-(6-(2-(3-(trifluoromethyl)-1H-pyrazol-4-yl)vinyl)-4-((3-(trifluoromethyl)phenyl)-sulfonyl)-3,4-dihydro-2H-benzo[b][1,4]oxazin-2-yl)propanoic acid]
< 500 | O=S(=O)(c1cccc(C(F)(F)F)c1)N1CCCc2cc(OCC3CCCCC3)ccc21 [Example 25M, 6-(cyclohexylmethoxy)-1-((3-(trifluoromethyl)phenyl)sulfonyl)-1,2,3,4-tetrahydroquinoline]

Same assay, conditions: RORγ-LBD TR-FRET assay

SMILES | EC50 [nM]
COc1cc(S(=O)(=O)N2c3cc(OCc4c(F)cccc4Cl)ccc3C[C@@H](CO)[C@H]2C)ccc1F [Example 151, ((2R,3R)-7-((2-Chloro-6-fluorobenzyl)oxy)-1-((4-fluoro-3-methoxyphenyl)sulfonyl)-2-methyl-1,2,3,4-tetrahydroquinolin-3-yl)methanol] | < 500
C/C(=C\c1ccc2c(c1)CC(CC(=O)O)CN2S(=O)(=O)c1cccc(C(F)(F)F)c1)c1c(F)cccc1Cl (stereo not drawn) [Example 150, (E)-2-(6-(2-(2-Chloro-6-fluorophenyl)prop-1-en-1-yl)-1-((3-(trifluoromethyl)phenyl)sulfonyl)-1,2,3,4-tetrahydroquinolin-3-yl)acetic acid] | > 10000
CNC(=O)N[C@@H]1Cc2ccc(/C=C(\C)c3c(F)cccc3Cl)cc2N(S(=O)(=O)c2cccc(C(F)(F)F)c2)[C@@H]1C [Example 145, 1-((2R,3R)-7-((E)-2-(2-Chloro-6-fluorophenyl)prop-1-en-1-yl)-2-methyl-1-((3-(trifluoromethyl)phenyl)sulfonyl)-1,2,3,4-tetrahydroquinolin-3-yl)-3-methylurea] | < 500

Results, then the compound that gave them:

EC50 [nM] | SMILES
< 500 | CCOC(=O)C(C)(C)CC1C[C@H](S(=O)(=O)c2cccc(C(F)(F)F)c2)c2cc(/C=C(\C)c3c(F)cccc3Cl)ccc2O1 (stereo in doubt) [Example 186L, ethyl 3-((2S,4S)-6-((E)-2-(2-chloro-6-fluorophenyl)prop-1-en-1-yl)-4-((3-(trifluoromethyl)phenyl)-sulfonyl)chroman-2-yl)-2,2-dimethylpropanoate]
500 to 5000 | C[C@@H]1[C@H](NC(=O)Nc2ccccn2)Cc2ccc(/C=C/c3c(F)cccc3C(F)(F)F)cc2N1S(=O)(=O)c1cccc(C(F)(F)F)c1 [Example 116M, 1-((2R,3R)-7-((E)-2-fluoro-6-(trifluoromethyl)styryl)-2-methyl-1-((3-(trifluoro-methyl)phenyl)sulfonyl)-1,2,3,4-tetrahydroquinolin-3-yl)-3-(pyridin-2-yl)urea]
< 500 | COc1cc(S(=O)(=O)C2CC(CC(C)(C)C(=O)O)Oc3ccc(/C=C(\C)c4c(F)cccc4Cl)cc32)ccc1F (stereo not drawn) [Example 186K, (E)-3-(6-(2-(2-chloro-6-fluorophenyl)prop-1-en-1-yl)-4-((4-fluoro-3-methoxyphenyl)-sulfonyl)chroman-2-yl)-2,2-dimethylpropanoic acid]

Same assay, conditions: RORγ-LBD TR-FRET assay, maximum response

SMILES | TR-FRET Assay Max Response
COc1cc(S(=O)(=O)N2c3cc(OCc4c(F)cccc4Cl)ccc3C[C@@H](CO)[C@H]2C)ccc1F [Example 151, ((2R,3R)-7-((2-Chloro-6-fluorobenzyl)oxy)-1-((4-fluoro-3-methoxyphenyl)sulfonyl)-2-methyl-1,2,3,4-tetrahydroquinolin-3-yl)methanol] | ** (a value in the range of greater than 90 to 150)
CCOC(=O)C(C)(C)CC1C[C@H](S(=O)(=O)c2cccc(C(F)(F)F)c2)c2cc(/C=C(\C)c3c(F)cccc3Cl)ccc2O1 (stereo in doubt) [Example 186L, ethyl 3-((2S,4S)-6-((E)-2-(2-chloro-6-fluorophenyl)prop-1-en-1-yl)-4-((3-(trifluoromethyl)phenyl)-sulfonyl)chroman-2-yl)-2,2-dimethylpropanoate] | *** (a value in the range of greater than 150 to 200)
CNC(=O)N[C@@H]1Cc2ccc(/C=C(\C)c3c(F)cccc3Cl)cc2N(S(=O)(=O)c2cccc(C(F)(F)F)c2)[C@@H]1C [Example 145, 1-((2R,3R)-7-((E)-2-(2-Chloro-6-fluorophenyl)prop-1-en-1-yl)-2-methyl-1-((3-(trifluoromethyl)phenyl)sulfonyl)-1,2,3,4-tetrahydroquinolin-3-yl)-3-methylurea] | ** (a value in the range of greater than 90 to 150)
C[C@@H]1[C@H](NC(=O)Nc2ccccn2)Cc2ccc(/C=C/c3c(F)cccc3C(F)(F)F)cc2N1S(=O)(=O)c1cccc(C(F)(F)F)c1 [Example 116M, 1-((2R,3R)-7-((E)-2-fluoro-6-(trifluoromethyl)styryl)-2-methyl-1-((3-(trifluoro-methyl)phenyl)sulfonyl)-1,2,3,4-tetrahydroquinolin-3-yl)-3-(pyridin-2-yl)urea] | *** (a value in the range of greater than 150 to 200)
COc1cc(S(=O)(=O)C2CC(CC(C)(C)C(=O)O)Oc3ccc(/C=C(\C)c4c(F)cccc4Cl)cc32)ccc1F (stereo not drawn) [Example 186K, (E)-3-(6-(2-(2-chloro-6-fluorophenyl)prop-1-en-1-yl)-4-((4-fluoro-3-methoxyphenyl)-sulfonyl)chroman-2-yl)-2,2-dimethylpropanoic acid] | *** (a value in the range of greater than 150 to 200)

Same assay, conditions: with 2 μM ursolic acid (RORγ antagonist); highest test concentration 10 μM

EC50 [nM] | SMILES
< 500 | COc1cc(S(=O)(=O)N2CC(C(=O)O)Cc3ccc(OCc4c(F)cccc4Cl)cc32)ccc1F (stereo not drawn)
< 500 | Cc1nn(C(F)F)cc1S(=O)(=O)N1CC(CO)Cc2ccc(OCc3c(F)cccc3Cl)cc21 (stereo not drawn) [drawing 1601]
< 500 | CCn1cc(S(=O)(=O)N2CC(C(=O)O)Oc3ccc(OCc4c(F)cccc4Cl)cc32)c(Cl)n1 (stereo not drawn)
> 10000 | CC(C)(C)c1ccc(COc2ccc3c(c2)N(S(=O)(=O)c2cccc(C(F)(F)F)c2)CC(C(=O)O)C3)cc1 (stereo not drawn)
5000 to 10000 | O=C(O)C1Cc2ccc(OCc3ccc(C(F)(F)F)c(F)c3)cc2N(S(=O)(=O)c2cccc(C(F)(F)F)c2)C1 (stereo not drawn)
< 500 | C/C(=C\c1ccc2c(c1)N(S(=O)(=O)c1cccc(C(F)(F)F)c1)C[C@H](CCCC(=O)O)O2)c1c(F)cccc1Cl [Example 195G, (S,E)-4-(6-(2-(2-chloro-6-fluorophenyl)prop-1-en-1-yl)-4-((3-(trifluoromethyl)phenyl)-sulfonyl)-3,4-dihydro-2H-benzo[b][1,4]oxazin-2-yl)butanoic acid]
< 500 | CCOc1nn(CC)cc1S(=O)(=O)N1CC(CO)Cc2ccc(OCc3c(F)cccc3Cl)cc21 (stereo not drawn)
< 500 | O=C(O)C1Cc2ccc(OCc3ccccc3F)cc2N(S(=O)(=O)c2cccc(C(F)(F)F)c2)C1 (stereo not drawn)
< 500 | COc1cc(S(=O)(=O)N2CC(CO)Cc3ccc(OCc4c(F)cccc4Cl)cc32)ccc1F (stereo not drawn)

Source: patent US9896441B2 (Lycera Corporation, priority 2014, dated 2018)
